Laboratory results as given in patent US20220380347A1, “INHIBITORS OF CYSTEINE PROTEASES AND METHODS OF USE THEREOF” (Pardes Biosciences, Inc., priority 2020, published 2022).
Several values for one entry are separate records, joined by “and”; a condition that tells them apart may be missing. Equal values may be shown once. Read-outs that look alike come from different tables or passages of the source.

Tests used:
HCov OC43 = test: HCoV OC43 cytopathic effect (CPE) assay, CellTiter Glo; type: cell-based, human coronavirus (HCov) OC43
[1] = molecular target: COVID-19 (nCoV-2019, SARS-CoV2) Mpro (Severe acute respiratory syndrome coronavirus 2, UniProt P0DTD1); test: COVID-19 (nCoV-2019, SARS-CoV2) Mpro enzymatic assay; type: biochemical; conditions: 25 nM Mpro, 25 μM substrate; read-out: COVID-19 Mpro IC50
229E Mpro = 229E Mpro (Human coronavirus 229E, UniProt P0C6X1); test: 229E Mpro enzymatic assay (standard methods, SARS-CoV2 Mpro assay given as exemplary); type: biochemical, human coronavirus (HCov) 229E
229E Mpro, sequence (P0C6X1 2966-3267): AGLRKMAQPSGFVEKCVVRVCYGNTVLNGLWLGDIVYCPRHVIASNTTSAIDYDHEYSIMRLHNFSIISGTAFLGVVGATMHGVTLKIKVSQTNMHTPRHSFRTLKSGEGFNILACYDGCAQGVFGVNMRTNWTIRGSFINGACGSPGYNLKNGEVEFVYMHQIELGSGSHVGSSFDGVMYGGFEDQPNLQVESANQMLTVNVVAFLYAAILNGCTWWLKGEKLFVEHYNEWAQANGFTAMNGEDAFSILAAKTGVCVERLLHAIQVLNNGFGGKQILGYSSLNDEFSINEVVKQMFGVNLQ
Procedure, shortened: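 Run by standard methods, with the SARS-CoV-2 Mpro protocol given as the model: E. coli-expressed C-His6 protease at 25 nM and substrate at 25 μM (Km 13.5 μM). Buffer pH 7.3 with 5 mM TCEP and 0.1% BSA; % inhibition versus controls fitted to variable-slope log(inhibitor)-response for IC50.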

[2] = Betacoronavirus 1, OC43, read-out: OC43 IC50 (uM) MEDIAN, median
[3] = read-out: OC43 IC50 (uM) MEDIAN, median

| Compound | IC50 (HCov OC43; [2]) | IC50 [1] | EC50 (229E Mpro; 229E Mpro EC50) | IC50 (HCov OC43; [3]) | EC50 (229E Mpro; read-out: 229E Mpro EC50) | IC50 (HCov OC43; read-out: OC43 IC50 (uM) MEDIAN, median, listed as 407 Isomer 1) | IC50 (HCov OC43; read-out: OC43 IC50 (uM) MEDIAN, median, listed as 262 Isomer 2) |
| --- | --- | --- | --- | --- | --- | --- | --- |
| N#CN1C[C@@H](F)C[C@@H]1C(=O)N(c1ccc(S(F)(F)(F)(F)F)cc1)C(C(=O)NC1CCC(F)(F)CC1)c1cncc(F)c1 (single isomer, unassigned) [Compound 1099 Isomer 1] | < 2 µM | < 2 µM | < 2 µM |  |  |  |  |
| COc1ccc(NC(=O)C(c2cccnc2)N(C(=O)[C@H]2C[C@@H](OC)CN2C#N)c2ccc(S(F)(F)(F)(F)F)cc2)cn1 (single isomer, unassigned) [1180 Isomer 2] |  | < 2 µM | < 2 µM | < 2 µM |  |  |  |
| C[C@H]1CN(C#N)[C@H]1C(=O)N(c1ccc(S(F)(F)(F)(F)F)cc1)C(C(=O)NC1CCC(F)(F)CC1)c1cncc(F)c1 (single isomer, unassigned) [1210 Isomer 1] |  | 10 to 30 µM | < 2 µM | 10 to 30 µM |  |  |  |
| CO[C@@H]1C[C@H](C(=O)N(c2ccc(S(F)(F)(F)(F)F)cc2)C(C(=O)NC(C)C2CCCCN2C(=O)OC(C)(C)C)c2cccnc2)N(C#N)C1 (single isomer, unassigned) [1303 Isomer 2.1] |  | 2 to 10 µM | 2 to 10 µM | 10 to 30 µM |  |  |  |
| CC(C(=O)NC1CCC(F)(F)CC1)(c1cccnc1)N(C(=O)[C@H]1[C@@H]2C[C@@H]2CN1C#N)c1ccc(S(F)(F)(F)(F)F)cc1 (single isomer, unassigned) [Compound 1251 Isomer 1] | 2 to 10 µM | 2 to 10 µM |  |  | < 2 µM |  |  |
| CO[C@@H]1C[C@H](C(=O)N(c2ccc(S(F)(F)(F)(F)F)cc2)C(C(=O)NC2CCC(F)(F)CC2)c2cnccc2C(F)(F)F)N(C#N)C1 (single isomer, unassigned) [1202 Isomer 2] |  | < 2 µM |  | < 2 µM | < 2 µM |  |  |
| N#CN1C[C@H](O)C[C@@H]1C(=O)N(c1ccc(C2CC2)cc1F)C(C(=O)NC1CCCCC1)c1cccnc1 (single isomer, unassigned) [Compound 763 Isomer 1] | < 2 µM | < 2 µM | < 2 µM |  |  |  |  |
| CC(C)(C)c1ccc(N(C(=O)[C@H]2CCCN2C#N)C(C(=O)NC2CCCCC2)c2cncc(F)c2)cc1 (single isomer, unassigned) [475 Isomer 2] |  | 10 to 30 µM | 2 to 10 µM | 10 to 30 µM |  |  |  |
| N#CN1CCOC[C@@H]1C(=O)N(c1ccc(C2CC2)cc1F)C(C(=O)NC1CCC(F)(F)CC1)c1cnccc1C(F)(F)F (single isomer, unassigned) [Compound 1313 Isomer 2] |  | 2 to 10 µM |  | 2 to 10 µM | < 2 µM |  |  |
| CO[C@@H]1C[C@H](C(=O)N(c2ccc(S(F)(F)(F)(F)F)cc2)C(C(=O)N2CC3(COC3)C2)c2cccnc2)N(C#N)C1 (single isomer, unassigned) [1171 Isomer 1] | 2 to 10 µM | 10 to 30 µM and < 2 µM | < 2 µM | < 2 µM |  |  |  |
| CO[C@@H]1C[C@H](C(=O)N(c2ccc(C(C)(C)C)cc2F)C(C(=O)NC2CCC(F)(F)CC2)c2cncc(F)c2)N(C#N)C1 (single isomer, unassigned) [1207 Isomer 1] |  | 2 to 10 µM | 10 to 30 µM | 10 to 30 µM |  |  |  |
| CC1(C)CN(C#N)[C@@H](C(=O)N(c2ccc(S(F)(F)(F)(F)F)cc2)C(C(=O)NC2CCC(F)(F)CC2)c2cncc(F)c2)CO1 (single isomer, unassigned) [1086b Isomer 1] | < 2 µM | < 2 µM | < 2 µM |  |  |  |  |
| CO[C@@H]1C[C@H](C(=O)N(c2ccc(S(F)(F)(F)(F)F)cc2)C(C(=O)NC2CCC(F)(F)CC2)c2cncc(F)c2)N(C#N)C1 (single isomer, unassigned) [1265 Isomer 1] | < 2 µM | < 2 µM | < 2 µM |  |  |  |  |
| COc1ccc(NC(=O)C(c2cccnc2)N(C(=O)[C@H]2CCCN2C#N)c2ccc(C(C)(C)C)cc2)cn1 (single isomer, unassigned) [Compound 407 Isomer 1] |  | < 2 µM | < 2 µM |  |  | 2 to 10 µM |  |
| CC(C)(C)c1ccc(N(C(=O)[C@H]2CCCN2C#N)C(C(=O)NCCN2CCOCC2)c2cccnc2)cc1 (single isomer, unassigned) [391 Isomer 2] |  | 10 to 30 µM | 2 to 10 µM | 10 to 30 µM |  |  |  |
| CC(C)(C)c1ccc(N(C(=O)[C@H]2CCCN2C#N)C(C(=O)N2CCC(N)CC2)c2cccnc2)cc1 (stereo partly shown) [Compound 966] | > 30 µM | > 30 µM | > 30 µM |  |  |  |  |
| N#CN1C[C@@H](F)C[C@@H]1C(=O)N(c1ccc(S(F)(F)(F)(F)F)cc1)C(C(=O)NC1CCC(F)(F)CC1)c1cncc(F)c1 (single isomer, unassigned) [Compound 1099 Isomer 2] |  | < 2 µM |  | 2 to 10 µM | < 2 µM |  |  |
| C[C@H](NC(=O)C(c1cncc(F)c1)N(C(=O)[C@H]1C[C@@](C)(O)CN1C#N)c1ccc(S(F)(F)(F)(F)F)cc1)c1ccccc1 (single isomer, unassigned) [1328 Isomer 2] |  | 2 to 10 µM |  | 2 to 10 µM | < 2 µM |  |  |
| N#CN1CC[C@H]2C[C@]21C(=O)N(c1ccc(S(F)(F)(F)(F)F)cc1)C(C(=O)NC1CCC(F)(F)CC1)c1cnccc1C(F)(F)F (stereo partly drawn) [Compound 1263, (1R,5S)-2-cyano-N-[2-[(4,4-difluorocyclohexyl)amino]-2-oxo-1-[4-(trifluoromethyl)-3-pyridyl]ethyl]-N-[4-(pentafluoro-λ^6-sulfanyl)phenyl]-2-azabicyclo[3.1.0]hexane-1-carboxamide] | > 30 µM | > 30 µM | 10 to 30 µM |  |  |  |  |
| CO[C@@H]1C[C@H](C(=O)N(c2ccc(S(F)(F)(F)(F)F)cc2)C(C)(C(=O)NC2CCC(F)(F)CC2)c2cccnc2)N(C#N)C1 (single isomer, unassigned) [1259 Isomer 1] | 2 to 10 µM | 2 to 10 µM | < 2 µM |  |  |  |  |
| CO[C@@H]1C[C@H](C(=O)N(c2ccc(S(F)(F)(F)(F)F)cc2)C(C(=O)N(C)CC(=O)NC2CC2)c2cccnc2)N(C#N)C1 (single isomer, unassigned) [1122 Isomer 2] |  | 10 to 30 µM |  | 2 to 10 µM | < 2 µM |  |  |
| CN(C)C1CN(C(=O)C(c2cccnc2)N(C(=O)[C@H]2CCCN2C#N)c2ccc(C(C)(C)C)cc2)C1 (stereo partly drawn) [Compound 975, (2R)—N-(4-(tert-butyl)phenyl)-1-cyano-N-(2-(3-(dimethylamino)azetidin-1-yl)-2-oxo-1-(pyridin-3-yl)ethyl)pyrrolidine-2-carboxamide] | 10 to 30 µM | 10 to 30 µM | 2 to 10 µM |  |  |  |  |
| C[C@@]1(O)C[C@H](C(=O)N(c2ccc(S(F)(F)(F)(F)F)cc2)C(C(=O)NC2CCC(F)(F)CC2)c2cccnc2F)N(C#N)C1 (single isomer, unassigned) [1158 Isomer 1] | < 2 µM | < 2 µM | < 2 µM |  |  |  |  |
| CC(C)(C)c1ccc(N(C(=O)[C@H]2CCC(C)(C)N2C#N)C(C(=O)NC2CCCCC2)c2cccnc2)cc1 (single isomer, unassigned) [Compound 262 Isomer 2] |  | 2 to 10 µM | < 2 µM |  |  |  | 10 to 30 µM |
| CO[C@@H]1C[C@H](C(=O)N(c2ccc(S(F)(F)(F)(F)F)cc2)C(C(=O)NCC2(C)COC2)c2cccnc2)N(C#N)C1 (single isomer, unassigned) [1176 Isomer 2] |  | 10 to 30 µM |  | 2 to 10 µM | < 2 µM |  |  |
